Patent US7671069B2, “Tricyclic, heteroaromatic compounds modulating CXCR4 and/ or CXCR7” (ChemoCentryx, Inc., priority 2006, dated 2010)

Tests used:
CXCR4 = target: T1, CXCR4 (Homo sapiens, UniProt P61073); experiment: Inhibition of SDF-1 ligand binding or chemotaxis assay for CXCR4; details: first (or only) activity listed in CXCR4/CXCR7; chemotaxis assay or binding assays
T1 construct: endogenous in cells; host or cells: CEM-Nkr, CCRF-CEM (ATCC #CCL-119), Jurkat (ATCC #TIB-152), Molt-4 (ATCC# CRL-1582); IL-2 stimulated lymphocytes from human blood
T1 sequence (P61073 whole entry): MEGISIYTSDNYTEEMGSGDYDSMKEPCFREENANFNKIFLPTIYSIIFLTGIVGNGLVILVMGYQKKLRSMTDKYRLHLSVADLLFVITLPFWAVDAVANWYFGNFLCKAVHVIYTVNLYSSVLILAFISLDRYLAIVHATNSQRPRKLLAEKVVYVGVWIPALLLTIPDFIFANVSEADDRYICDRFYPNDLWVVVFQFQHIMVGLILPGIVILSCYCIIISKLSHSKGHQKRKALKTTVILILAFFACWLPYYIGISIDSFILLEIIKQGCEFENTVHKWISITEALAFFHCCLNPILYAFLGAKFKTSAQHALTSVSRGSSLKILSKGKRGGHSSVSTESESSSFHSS
Protocol: CEM-Nkr, CCRF-CEM (ATCC #CCL-119), Jurkat (ATCC #TIB-152), Molt-4 (ATCC# CRL-1 582), cell lines, all endogenously expressing CXCR4, were used in compound screening and subsequent assays. These cell lines were cultured as a suspension in RPMI-1640 medium supplemented with 2 mM L-glutamine, 1.5 g/L sodium bicarbonate, 4.5 g/L glucose, 10 mM HEPES, 1 mM sodium pyruvate, and 10% FBS. Cells were grown under 5% CO2/95% air, 100% humidity at 37° C. and subcultured twice weekly at 1:6 (cells were cultured at a density range of 1×10^5 to 2×10^6 cells/mL) and harvested at 1×10^6 cells/mL.
Il-2 stimulated lymphocytes were isolated from fresh human blood using density separation and centrifigation. Briefly, whole blood is incubated with equal parts 3% dextran and allowed to separate for 45 minutes. After separation, the top layer is then layered on top of 15 mls of Ficoll (15 mls of Ficoll for every 30 mls of blood suspension) and centrifuged for 30 minutes at 400×g with no brake. The pellet at the bottom of the tube is then isolated and resuspended into PharmLyse RBC Lysis Buffer (BD Biosciences, San Jose, Calif.) after which the sample is again centrifuged for 10 minutes at 400×g with brake. The remaining cell pellet is resuspended as appropriate and stimulated with PHA for 2 days, followed by culturing in the presence of human IL-2 cytokine.
Cells were centrifuged and resuspended in assay buffer (20 mM HEPES pH 7.1, 140 mM NaCl, 1 mM CaCl2, 5 mM MgCl2, and with 0.2% bovine serum albumin) to a concentration of 4×10^6 cells/mL for cell lines. Binding assays were set up as follows. 0.15 mL of cells (6×10^5 cells/well) was added to the assay plates containing the compounds, giving a final concentration of ˜2-10 μM each compound for screening (or part of a dose response for compound IC50 determinations). Then 0.1 mL of ^125I labeled SDF-1α (obtained from Perkin Elmer Life Sciences, Boston, Mass.) diluted in assay buffer to a final concentration of ˜[…], yielding ˜30,000 cpm per well, was added, the plates sealed and incubated for approximately 3 hours at 4° C. on a shaker platform. Reactions were aspirated onto GF/B glass filters pre-soaked in 0.3% polyethyleneimine (PEI) solution, on a vacuum cell harvester (Packard Instruments; Meriden, Conn.). Scintillation fluid (40 μl; Microscint 20, Packard Instruments) was added to each well, the plates were sealed and radioactivity measured in a Topcount scintillation counter (Packard Instruments). Control wells containing either diluent only (for total counts) or excess SDF1a (1 μg/mL, for non-specific binding) were used to calculate the percent of total inhibition for compound. The computer program Prism from Graph Pad, Inc. (San Diego, Calif.) was used to calculate IC50 values. IC50 values are those concentrations required to reduce the binding of radiolabeled SDF-1α to the receptor by 50%. (For further descriptions of ligand binding and other functional assays, see Dairaghi, et al., J. Biol. Chem. 274:21569-21574 (1999), Penfold, et al., Proc. Natl. Acad. Sci. USA. 96:9839-9844 (1999), and Dairaghi, et al,. J. Biol. Chem. 272:28206-28209 (1997)).
Chemotaxis assays were performed using 5 μm pore polycarbonate, polyvinylpyrrolidone-coated filters in 96-well chemotaxis chambers (Neuroprobe; Gaithersburg, Md.) using chemotaxis buffer (Hank's balanced salt solution (HBSS) and 1% FBS). CXCR4 ligand (i.e., SDF1a, R&D Systems; Minneapolis, Minn.) are use to evaluate compound mediated inhibition of CXCR4 mediated migration. Other chemokines (i.e., TECK; R&D Systems; Minneapolis, Minn.) are used as specificity controls. The lower chamber was loaded with 29 μl of chemokine (i.e., 0.1 nM SDF1a); the top chamber contained 50,000 Jurkat cells or IL-2 lymphocytes in 20 μl. […]

CCXCKR2 (CXCR7) = target: T2, CCXCKR2 (CXCR7) (Homo sapiens, UniProt P25106); experiment: Displacement of 125I SDF-1 from CCXCKR2 (CXCR7) on MCF-7 and/or MDA-MB-435S cells; assay type: binding; details: second activity CXCR4/CXCR7
T2 construct: expressed in transfected cells; host or cells: MDA-MB-435S transfected with pcDNA3.1(+)-hRDC1 (G418 selected) and/or MCF-7 (endogenous receptor)
T2 sequence (P25106 whole entry): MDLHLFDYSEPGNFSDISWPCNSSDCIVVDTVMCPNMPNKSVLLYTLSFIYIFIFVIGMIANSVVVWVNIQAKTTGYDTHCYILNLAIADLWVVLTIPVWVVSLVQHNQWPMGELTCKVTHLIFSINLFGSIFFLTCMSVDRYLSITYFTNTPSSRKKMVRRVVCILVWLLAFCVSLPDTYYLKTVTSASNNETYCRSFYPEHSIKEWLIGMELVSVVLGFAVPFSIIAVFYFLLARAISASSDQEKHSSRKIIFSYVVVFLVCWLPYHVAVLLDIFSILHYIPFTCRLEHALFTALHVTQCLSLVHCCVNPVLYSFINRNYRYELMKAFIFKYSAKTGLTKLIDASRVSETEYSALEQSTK
Protocol: The ability of the compounds to displace the labeled chemokine from the CCXCKR2 receptor sites at multiple concentrations was then determined with the screening process.
Reagents and Cells. […] SDF-1 was purchased from Perkin-Elmer Life Sciences, Inc. (Boston, Mass.). The MCF-7 (adenocarcinoma; mammary gland) cell line was obtained from the American Type Culture Collection (Manassas, Va.) or and was cultured in DMEM (Mediatech, Herudon, Va.) supplemented with 10% fetal bovine serum (FBS) (HyClone Logan, Utah) and bovine insulin (0.01 mg/mL) (Sigma, St. Louis, Mo.) at 37° C. in a humidified incubator at a 5% CO2/air mixture. CCXCKR2 transfected MDA-MB-435S were produced as described below. MDA-MB-435S human breast cancer line, was purchased from ATCC, and cultured in DMEM/10% FBS medium. The complete coding sequence of the gene encoding CCXCKR2 (a.k.a.CXCR7, hRDC1), was isolated from MCF-7 cells using μMACs mRNA isolation kit (Miltenyi Biotec, Auburn, Calif.). DNA contamination was removed by DNase digestion via RNeasy columns (Qiagen, Inc., Valencia, Calif.) and cDNA was generated using GeneAmp RNA PCR Core Kit (Applied Biosystems, Foster City, Clif.). PCR of cDNA samples was performed using Taq PCR Master Mix kit (Qiagen, Inc.) and hRDC1 primers harboring 5′ and 3′ Not I sites (hRDC1F 5′ […]-3′ (SEO ID NO:11), hRDC1R 5′-[…]-3′ (SEO ID NO: 12)) Not I digested PCR product was ligated into Not I digested pcDNA3.1 (+)(Invitrogen, Carlsbad, Calif.) and screened for orientation and sequence confirmed. Plasmid DNA was then isolated from overnight bacterial cultures by Maxiprep (Qiagen, Inc.). Plasmid DNA (10μg) was added to MDA-MB-435s cells and cells were electroporated (0.22 kV, 960uF) via Gene Pulser (Biorad laboratories, Hercules, Calif.). 48 hr post-electroporation, cells were transferred to selection medium (1000 ug/ml G418).
Binding Analysis. Target compounds were tested to determine their ability to bind with CCXCKR2 sites on MCF-7 and/or MDA-MB-435S cells. Efficiency-maximized radioligand binding using filtration protocols as described in Dairaghi D J, et al., HHV8-encoded vMIP-I selectively engages chemokine receptor CCR5. Agonist and antagonist profiles of viral chemokines, J. Biol. Chem. Jul. 30, 1999; 274(31): 21569-74 and Gosling J, et al., Cutting edge: identification of a novel chemokine receptor that binds dendritic cell-i and T cell-active chemokines including ELC, SLC, and TECK., J. Immunol. Mar. 15, 2000; 164(6):2851-6 was used.
In these assays, MCF-7 and/or MDA-MB-435S cells were interrogated with the target compounds and the ability of these compounds to displace ^125I radiolabeled SDF-1 was assessed using the protocol described in Dairaghi and Gosling. The target compounds were added to the plate to the indicated concentration and were then incubated with cells followed by the addition of radiolabeled chemokine (^125I SDF-1) for 3 hr at 4° C. in the following binding medium (25 mM HEPES, 140 mM NaCl, 1 mM CaCl2, 5 mM MgCl2 and 0.2% bovine serum albumin, adjusted to pH 7.1). All assays were then incubated for 3 hrs at 4° C. with gentle agitation. Following incubation in all binding assays, reactions were aspirated onto PEI-treated GF/B glass filters (Packard) using a cell harvester (Packard) and washed twice (25 mM HEPES, 500 mM NaCl, 1 mM CaCl2, 5 mM MgCl2, adjusted to pH 7.1). Scintillant (MicroScint 10, Packard) was added to the wells, and the filters were counted in a Packard Topcount scintillation counter. Data were analyzed and plotted using Prism (GraphPad Prism version 3.0a for Macintosh, GraphPad Software, www.graphpad.com).

IC50 (CXCR4) [µM]	IC50 (CCXCKR2 (CXCR7)) [µM]	Compound
1 to 10	< 1	Cc1ccc2oc(=O)c3cnn(CC(=O)NCCN(C)C4CCCCC4)c3c2c1 [Compound 1]
1 to 10	< 1	Cc1ccc2c(c1)-c1c(cnn1CC(=O)NCCN(C)C1CCCCC1)CO2 [Compound 2]
< 1	< 1	COc1ccc2c(c1)c1c(cnn1CC(=O)NCCN1CCCC3CCCCC31)c(=O)n2C (centres unmarked) [Compound 13]
< 1	< 1	COc1ccc2oc(=O)c3cnn(CC(=O)NCCN(C)C4CCCCC4)c3c2c1 [Compound 24]
1 to 10	< 1	COc1ccc2c(c1)c1c(cnn1CC(=O)NCCN(C)C1CCCCC1)c(=O)n2C [Compound 30]
> 10	< 1	COc1ccc2c(c1)c1c(cnn1CC(=O)NCCNC1CCCCC1)c(=O)n2C [Compound 31]
1 to 10	< 1	COc1ccc2c(c1)c1c(cnn1CC(=O)NCCN(C)C1CCCCCCC1)c(=O)n2C [Compound 32]
